Experimental data: patent US8729034B2, “Pharmaceutical composition having virucidal and spermicidal activity” (priority 2007, dated 2014)
“Also recorded” adds a separate entry of the source.

Assays:
Female cycling rats = assay: Intra uterine application of Ac-B and IUI in rat, fertilization outcome; assay type: in vivo, Sprague-Dawley rats
Method: Female cycling rats weighing 180-200 g were obtained from the institutional Animal House. The duplex nature of the rat uterus with separate cervical canal helped us to organize both control and experimental sets in the same animal with exposure to identical physiological milieu.
On the day of pro-estrous, both horns of the uterus were exposed by mid-ventral incision of the abdomen under light anesthesia following intra peritoneal injection of Ketamin at a concentration of 100 mg/kg body weight, supported by inhalation of anesthetic-ether, during 17.00-17.30 hours of the day. IUI was performed by injecting 50 microliters of sperm suspensions with varied concentration (25-30, 40-50, and 50-55 million sperms/ml) through a 24 G needle fitted onto a tuberculin syringe in the cervical end of the uterine lumen of each horn. The muscle in the injection site was held tightly for a while to prevent leakage through the puncture. Prior to IUI, each rat received a injection of 1.75 mg Ac-B in 50 microliters BWW medium in the left horn and simple BWW medium in the right horn. The opened abdominal muscle and skin layers were properly sutured by suturing silk thread. The outer most skin layers were further fixed by metal clips. The wound was properly cleaned with antiseptic lotions. Each operated animal was housed individually in fresh cage for collection and counting of unfertilized oocytes, two celled embryos, and fragmented bodies. […] The abdomen was opened and each of the fallopian tubes was collected carefully. The content of each tube was flushed out by introducing BWW medium into each tube with the help of a 30 G hypodermic needle in a watch glass. The flushed out lavage was examined under an inverted phase contrast microscope (Leitz, Labovert, ×100) to score the number of recovered fertilized/unfertilized eggs from individual fallopian tube.

female rabbits = assay: Contraceptive efficacy following intravaginal application in rabbits; assay type: in vivo, New Zealand Rabbits; settings: intra-vaginal
Method: Healthy virgin, nulliparous female rabbits were primed with PMSG (200 i.u.; i.p.; 96 hrs prior to testing) to induce ovulation. Serial dilutions (2.5 mg/ml, 10 mg/ml, 25 mg/ml and 50 mg/ml) of Ac-B in KY-jelly was prepared to be used as test solutions and only KY-jelly was used for control group. Two ml of test/control solution was introduced 6-8 cm deep into the vagina of each rabbit with by the syringe with gavaging needle. The animal was held in supine position for about five minutes and then hand-mated by the selected proven bucks. The buck was allowed one-time mating. To ensure ovulation 100 i.u. of hCG was administered through the marginal ear vein of each participating doe. The vaginal lavage of the mated doe was examined under a microscope. The presence of spermatozoa in the lavage was considered as confirmed mating. The mated does were kept in separate cages to complete their gestation period and the number of delivered pups was recorded. The mean value of the pups was calculated to determine the contraceptive potential.

human spermatozoa [1] = assay: Motility revival test (Experiment A); assay type: cell-based; settings: human spermatozoa treated at MEC, washed, incubated 30-60 minutes at 37 degree C
Method: Human spermatozoa, treated with Ac-B at MEC and BWW control set were washed twice in pre-equilibrated BWW medium, re-suspended in fresh BWW medium and again incubated in a CO2-incubator at 37 degree C. for 30-60 minutes. At the end of the incubation, wet-preparation of spermatozoa was made from each set on a glass slide. The preparation was examined under a phase contrast microscope (at ×400) to note reversal of motility in 10 fields-of-view.

human spermatozoa [2] = assay: Membrane lipid peroxidation, MDA by thiobarbituric acid (TBA) test; assay type: cell-based; settings: Ac-B 10-120 microgram per ml, 20 seconds
Method: Membrane lipid peroxidation was estimated by the end point generation of malondialdehyde (MDA) determined by the thiobarbituric acid (TBA) test.
Suspension of human spermatozoa was prepared using the swim up technique, as described above. A series of dilutions (10, 20, 40, 60, 80, 100 and 120 microgram per ml) of Ac-B was prepared in BWW medium. From each test (Ac-B) solution, 800 microliters was taken out and mixed with 200 microliters of sperm suspension with a gentle vortex for 10 seconds. After 20 seconds of mixing, the treated spermatozoa were separated from the suspending medium by centrifugation. The pellet of washed spermatozoa was resuspended in physiological saline. A control set of untreated sperm was treated similarly. Membrane lipid peroxidation was estimated by the end point generation of malondialdehyde (MDA), determined by the thiobarbituric acid (TBA) test.
Briefly, diluted spermatozoa with or without treatment (250×10^6 cells in 1 ml) were mixed with 1 ml of cold 20% (wt/vol) trichloroacetic acid (TCA) to precipitate protein. The precipitate was pelleted by centrifugation (2000 rpm for 10 minutes), and 1 ml of the supernatant was incubated with 1 ml of 0.67% (wt/vol) TBA in a boiling water bath at 100 degree C. for 30 minutes. After cooling, the absorbance was determined by a spectrophotometer (UNICAM PU 8610 Kinetics spectrophotometer; Philips, Holland) at 535 nm.

human sperm = assay: Electron microscopy of treated sperm (TEM/SEM); assay type: cell-based; settings: Ac-B-treated human sperm
Method: For electron microscopy, the suspending medium was replaced with 0.1M phosphate buffer (pH 7.0). A concentrated untreated (control) and Ac-B-treated (experimental) human sperm suspension were mixed with 2% glutaraldehyde in phosphate buffer for fixation at 4 degree C. for 4 hours. After three successive washings in buffer at room temperature, post-fixation was done by 1% osmium tetroxide. Thirty minutes after post-fixation, the spermatozoa were quickly washed with phosphate buffer and end block staining was done by saturated urenyl acetate solution. Dehydration of the fixed spermatozoa was done in graded (50%, 70%, 90% and 100%) ethyl alcohol. A portion of each set of dehydrated sperms were embedded in spur and blocks were prepared for ultra-thin sectioning. Ultra-thin sections were prepared in LKB Ultramicrotome using a diamond knife. Finally the thin sections were stained with urenyl acetate and freshly prepared lead citrate. The stained sections were thoroughly examined under TECHNI G2 BIOTWEEN transmission electron microscope (at ×25000). The rest of the dehydrated sperm sets were prepared for examination under tescan scanning electron microscope.

Candida albicans = assay: Effect on in vitro culture of Candida albicans for 24 hours; assay type: cell-based; settings: Ac-B 125 microgram per ml; PD agar
Method: Candida albicans spores were grown in vitro on Potato dextrose [PD] agar plates without (control) and with Ac-B at a concentration of 125 microgram per ml.

[3] = 1.75 mg Ac-B intrauterine, sperm count 25-30 million/ml (N = 3)
[4] = 1.75 mg Ac-B intrauterine, sperm count 40-50 million/ml (N = 4)
[5] = 1.75 mg Ac-B intrauterine, sperm count 50-55 million/ml (N = 4)

Which “Fertilized (number of eggs), treated horn” value (Female cycling rats; 1.75 mg Ac-B in 50 microliters BWW intrauterine before IUI, sperm count 25-30 million/ml (N = 3), flushing 38-40 hours after IUI) does the source give for Acaciaside-B [Ac-B] here?
Its value is 0 (0%).

And the “Fertilized (%), treated horn” value (Female cycling rats; [3])?
Its value is 0 (0%).

What about the “Unfertilized (%), treated horn” value (Female cycling rats; [3]) of the same substance?
Its value is 100%.

And the “Unfertilized (number of eggs), treated horn” value (shortened to “Unfertilized (number of eggs)”) (Female cycling rats; [3])?
Its value is 17.

And the “Fertilized (number of eggs), treated horn” value (Female cycling rats; [4])?
Its value is 0 (%).

And the “Unfertilized (%), treated horn” value (Female cycling rats; [4])?
The value was 100%.

What about the “Unfertilized (number of eggs)” value (Female cycling rats; [4]) of the same substance?
The value was 19.

And the “Fertilized (%), treated horn” value (Female cycling rats; [5])?
Its value is 18%.

And the “Fertilized (number of eggs), treated horn” value (Female cycling rats; [5])?
Its value is 3.

And the “Unfertilized (%), treated horn” value (Female cycling rats; [5])?
Its value is 82%.

And the “Unfertilized (number of eggs)” value (Female cycling rats; [5])?
The value was 13.

What about the “Mean numbers of pups delivered” value (female rabbits; 2 ml of 2.5 mg/ml Acaciaside-B in K-Y jelly (n = 5)) of the same substance?
The value was 3.4.

And the “Mean numbers of pups delivered” value (female rabbits; 2 ml of 10 mg/ml Acaciaside-B in K-Y jelly (n = 5))?
Its value is 2.2.

What about the “Mean numbers of pups delivered” value (female rabbits; 2 ml of 25 mg/ml Acaciaside-B in K-Y jelly (n = 5)) of the same substance?
Its value is 0.2.

And the “Mean numbers of pups delivered” value (female rabbits; 2 ml of 50 mg/ml Acaciaside-B in K-Y jelly (n = 5))?
Its value is 0.0.

And the “Revival of motility after washing and re-incubation” value (human spermatozoa [1])?
Its value is “no sign for revival of motility; also recorded: irreversible”.

What about the “Production of malondialdehyde (MDA)” value (human spermatozoa [2]) of the same substance?
The value was “increase in the production of MDA; also recorded: dose-dependent increased generation of malondialdehyde (MDA)”.

What about the “Electron microscopic finding on plasma membrane (TEM)” value (human sperm) of the same substance?
The value was “vesiculization/vacuolization of the plasma membrane leading to its disintegration”.

And the “Number of Candida albicans colonies, presence vs absence of Ac-B” value (Candida albicans)?
The value was “no significant difference”.

And the “Sizes of individual Candida albicans colonies” value (Candida albicans)?
Its value is “comparatively smaller”.
